Values of other authors in patent US20250017941A1, “METHODS OF TREATING NON-HODGKIN LYMPHOMA USING 2-(2,6-DIOXOPIPERIDIN-3-YL)-4-((2-FLUORO-4-((3-MORPHOLINOAZETIDIN-1-YL)METHYL)BENZYL)AMINO)ISOINDOLINE-1,3-DIONE” (Celgene Corporation, priority 2021, published 2025).
Where two headings read alike, the source gives them in different places.

Legend:
[1] = tested on: patients with FL who had received 2 or more prior systemic therapies
[2] = tested on: adult patients with CD20-positive indolent non-Hodgkin lymphoma refractory to rituximab
[3] = 53 patients with EZH2 wild-type status, 800 mg orally twice daily
[4] = tafasitamab in combination with lenalidomide, R/R DLBCL
[5] = tafasitamab in combination with lenalidomide, listed with the G3/4 events

CCN(c1cc(-c2ccc(CN3CCOCC3)cc2)cc(C(=O)NCc2c(C)cc(C)[nH]c2=O)c1C)C1CCOCC1 [Tazemetostat, N-[(1,2-dihydro-4,6-dimethyl-2-oxo-3-pyridinyl)methyl]-5-[ethyl (tetrahydro-2H-pyran-4-yl)amino]-4-methyl-4′-(4-morpholinylmethyl)-[1,1′-biphenyl]-3-carboxamide]
Grade 3/4 anemia, patients ([1]; 800 mg orally twice daily): 8%
Grade 3/4 neutropenia, patients ([1]; 800 mg orally twice daily): 7%
Grade 3/4 thrombocytopenia, patients ([1]; 800 mg orally twice daily): 7%
Serious AEs, patients ([1]; 800 mg orally twice daily): 30%
CR rate ([1]; 42 patients with EZH2 mutated status, 800 mg orally twice daily): 12%
ORR ([1]; 42 patients with EZH2 mutated status, tazemetostat 800 mg orally twice daily): 69%
CR rate [1, 3]: 4%
ORR [1, 3]: 34%
mDOR ([1]; EZH2 wild-type cohort, 800 mg orally twice daily): 13 months
most common AEs of all grades, frequency ([1]; fatigue, upper respiratory tract infection, nausea, abdominal pain and musculoskeletal pain): ≥ 20%
most common serious AEs, patients ([1]; general physical health deterioration, abdominal pain, pneumonia, sepsis and anemia): at least 2%
mDOR ([1]; patients with EZH2 mutated status, 800 mg orally twice daily): 10.9 months

Cn1c(CCCC(=O)O)nc2cc(N(CCCl)CCCl)ccc21 [bendamustine]
PFS (primary endpoint) ([2]; median follow-up 21.9 months (obinutuzumab plus bendamustine) and 20.3 months (bendamustine monotherapy)): 14.9 months
Febrile neutropenia, occurrence ([2]; per arm): uncommon
Grade 3/4 anemia, patients ([2]; per arm): 8%
Grade 3/4 neutropenia, patients ([2]; per arm): 26%
Grade 3/4 thrombocytopenia, patients ([2]; per arm): 15%
Serious AEs, patients ([2]; per treatment group): 33%
deaths due to adverse events, patients ([2]; per treatment group): 6%

tafasitamab: anti-CD19 monoclonal antibody; results are for the combination with lenalidomide
objective response rate (ORR) (patients with R/R DLBCL; tafasitamab 12 mg/kg intravenously in combination with lenalidomide 25 mg orally, R/R DLBCL, 81 participants): 60%
complete response (CR) rate (patients with R/R DLBCL; tafasitamab 12 mg/kg intravenously in combination with lenalidomide, R/R DLBCL, 81 participants): 34%
G3/4 febrile neutropenia, patients (patients with R/R DLBCL; [4]): 12%
G3/4 neutropenia, patients (patients with R/R DLBCL; [4]): 48%
Serious AEs, patients (patients with R/R DLBCL; [4]): 52%
Serious AEs: febrile neutropenia, patients (patients with R/R DLBCL; [4]): 6%
Serious AEs: pneumonia, patients (patients with R/R DLBCL; [4]): 6%
median duration of response (patients with R/R DLBCL; [4]): 21.7 months
anemia, patients (patients with R/R DLBCL; [5]): 7%
thrombocytopenia, patients (patients with R/R DLBCL; [5]): 17%
most common adverse events (AEs) of all grades, frequency (patients with R/R DLBCL; tafasitamab in combination with lenalidomide, neutropenia, fatigue, anemia, diarrhea, thrombocytopenia, cough, pyrexia, peripheral edema, rash, decreased appetite): ≥ 20%
